In ChEMBL document CHEMBL1201862, “PubChem BioAssay data set” (2004):
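Cultured in 96-well plates, cells were exposed to test compound for 48 hours across five concentrations. Abbreviation: GI50, concentration required for 50% inhibition of growth.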 Activity calls are given as the source filed them. No stated cut-off is given here; in the data, active = GI50 up to about 1.1 µM and inactive = higher.

Experiments:
Assay in all cases: inhibition of tumour cell growth, NCI panel, 48 h
[1] = tested on: A498
[2] = tested on: COLO 205
[3] = tested on: HCT-15
[4] = tested on: HOP-62
[5] = tested on: LOX IMVI
[6] = tested on: MCF7
[7] = tested on: MDA-MB-231
[8] = tested on: MDA-MB-435
[9] = tested on: MDA-N
[10] = tested on: OVCAR-4
[11] = tested on: PC-3
[12] = tested on: SF-539
[13] = tested on: SK-MEL-28
[14] = tested on: SK-MEL-2
[15] = tested on: SK-OV-3
[16] = tested on: SNB-75
[17] = tested on: UACC-62
[18] = tested on: UO-31
[19] = tested on: Malme-3M
[20] = tested on: NCI/ADR-RES

Row | SMILES | GI50 [1] | GI50 [2] | GI50 [3] [µM] | GI50 [4] | GI50 [5] | GI50 [6] | GI50 [7] | GI50 [8] | GI50 [9] | GI50 [10] | GI50 [11] | GI50 [12] | GI50 [13] | GI50 [14] | GI50 [15] | GI50 [16] | GI50 [17] | GI50 [18] | GI50 [19] | GI50 [20]
1 | Cc1cc2[n-][n+]3ncc(-c4ccccc4)n3c2cc1[N+](=O)[O-] | > 100 µM (inactive) | > 100 µM (inactive) | > 100 | > 100 µM (inactive) | > 100 µM (inactive) | > 100 µM (inactive) | > 100 µM (inactive) | > 100 µM (inactive) | > 10 µM (inactive) | > 100 µM (inactive) | > 100 µM (inactive) | > 100 µM (inactive) | > 100 µM (inactive) | > 100 µM (inactive) | > 100 µM (inactive) | > 100 µM (inactive) | > 100 µM (inactive) | > 100 µM (inactive) |  | 
2 | O=C1c2ccccc2C(=O)c2sc(Nc3ccc([N+](=O)[O-])cc3)nc21 | 17.2 µM (inactive) | 8.59 µM (inactive) | 5.32 | 13 µM (inactive) | 2.03 µM (inactive) | 9.35 µM (inactive) | 2.3 µM (inactive) |  | 2 µM (inactive) | 4.4 µM (inactive) | 7.38 µM (inactive) | 7.91 µM (inactive) | 10.6 µM (inactive) | 13.6 µM (inactive) | 21.7 µM (inactive) | 7.89 µM (inactive) | 3.08 µM (inactive) | 3.87 µM (inactive) | 6.25 µM (inactive) | 
3 | CC(=O)C(=[N+]=[N-])C(=O)OCCOC(=O)C(=[N+]=[N-])C(C)=O | > 1 µM (active) |  | > 1 | > 1 µM (active) | > 1 µM (active) | > 1 µM (active) | > 1 µM (active) | > 1 µM (active) | > 1 µM (active) |  | > 1 µM (active) | > 1 µM (active) | > 1 µM (active) | > 1 µM (active) | > 1 µM (active) | > 1 µM (active) | > 1 µM (active) | > 1 µM (active) | > 1 µM (active) | 
4 | O=C(c1cc(Cl)cc(Cl)c1)N1CCN(C(=O)c2cc(Cl)cc(Cl)c2)C1=S | 15.5 µM (inactive) | 15.9 µM (inactive) | 12.6 | 14.8 µM (inactive) | 3.31 µM (inactive) | 3.08 µM (inactive) | 15.7 µM (inactive) | 11.7 µM (inactive) | 14.1 µM (inactive) | 19.1 µM (inactive) | 13.9 µM (inactive) | 7.28 µM (inactive) | 23.2 µM (inactive) | 16.8 µM (inactive) | 16.3 µM (inactive) | 14.1 µM (inactive) | 9.91 µM (inactive) | 2.31 µM (inactive) | 11.6 µM (inactive) | 
5 | O=C(c1c(F)c(F)c(F)c(F)c1F)n1c(=S)n(C(=O)c2c(F)c(F)c(F)c(F)c2F)c2ccccc21 |  | 49.9 µM (inactive) | > 100 | > 100 µM (inactive) | 35.7 µM (inactive) | 69.8 µM (inactive) | > 100 µM (inactive) | > 10 µM (inactive) | > 100 µM (inactive) | 95.5 µM (inactive) | 64 µM (inactive) | > 100 µM (inactive) | 59.2 µM (inactive) | > 100 µM (inactive) | > 100 µM (inactive) | > 100 µM (inactive) | 24.7 µM (inactive) | > 100 µM (inactive) |  | 
6 | Cc1c(S(=O)(=O)/N=C(\NN)Nc2ccc(Cl)cc2)sc2ccc(Cl)cc12 | 15.8 µM (inactive) | 16.3 µM (inactive) | 16.6 | 18.7 µM (inactive) | 18.6 µM (inactive) | 14.9 µM (inactive) | 16.5 µM (inactive) |  | 15.6 µM (inactive) | 15.5 µM (inactive) | 15.5 µM (inactive) | 14.3 µM (inactive) | 20.6 µM (inactive) | 16.3 µM (inactive) | 19.7 µM (inactive) | 14.8 µM (inactive) | 14.2 µM (inactive) | 19 µM (inactive) | 22.3 µM (inactive) | 18 µM (inactive)
7 | COc1ccc2c(c1)N=C(N)n1c(nc3ccccc31)S2 | 32.1 µM (inactive) | 5.27 µM (inactive) | 25.1 | 57.8 µM (inactive) | 15.9 µM (inactive) | 10.9 µM (inactive) | 12.7 µM (inactive) |  | 3.45 µM (inactive) | 4.66 µM (inactive) | 7.24 µM (inactive) | 34.6 µM (inactive) | 70.1 µM (inactive) | 7.98 µM (inactive) | 30.5 µM (inactive) | 31.7 µM (inactive) | 16.3 µM (inactive) | 12.2 µM (inactive) | 68.9 µM (inactive) | 19.2 µM (inactive)
8 | CCCNC(=O)Cn1c(C)cc2ccccc21 |  | > 100 µM (inactive) | > 100 | > 100 µM (inactive) | > 100 µM (inactive) | > 100 µM (inactive) |  | > 100 µM (inactive) | > 100 µM (inactive) | > 100 µM (inactive) | > 100 µM (inactive) | > 100 µM (inactive) | > 100 µM (inactive) | > 100 µM (inactive) | > 100 µM (inactive) | > 100 µM (inactive) | > 100 µM (inactive) | > 100 µM (inactive) | > 100 µM (inactive) | > 100 µM (inactive)
9 | COc1cc(NCc2ccc3oc(=O)c(-c4ccccc4)nc3c2)cc(OC)c1OC |  | > 10 µM (inactive) | > 10 | > 10 µM (inactive) | > 10 µM (inactive) | > 10 µM (inactive) | > 10 µM (inactive) | > 10 µM (inactive) | > 10 µM (inactive) | > 10 µM (inactive) | > 10 µM (inactive) | > 10 µM (inactive) | > 10 µM (inactive) | > 10 µM (inactive) | > 10 µM (inactive) | > 10 µM (inactive) | > 10 µM (inactive) | > 10 µM (inactive) |  | > 10 µM (inactive)
10 | Cn1nc(-c2ccccc2)nc1[N+](=O)[O-] | > 10 µM (inactive) | > 10 µM (inactive) | > 10 | > 10 µM (inactive) | > 10 µM (inactive) |  | > 10 µM (inactive) | > 10 µM (inactive) | > 10 µM (inactive) | > 10 µM (inactive) | > 10 µM (inactive) | > 10 µM (inactive) | > 10 µM (inactive) | > 10 µM (inactive) | > 10 µM (inactive) | > 10 µM (inactive) | > 10 µM (inactive) | > 10 µM (inactive) | > 10 µM (inactive) | > 10 µM (inactive)
11 | C[C@]12CC[C@H](O)C[C@H]1CC[C@@H]1[C@@H]2CC[C@]2(C)[C@@H](C3=CC(=O)OC3)CC[C@]12O [DIGITOXIGENIN] | 0.125 µM (active) | 0.44 µM (active) | 0.101 | 0.04 µM (active) | 0.0547 µM (active) |  | 0.774 µM (active) | 0.217 µM (active) | 0.168 µM (active) | 0.0662 µM (active) | 0.149 µM (active) | 0.0356 µM (active) | 0.569 µM (active) | 0.321 µM (active) | 0.111 µM (active) | 0.299 µM (active) | 0.36 µM (active) | 0.117 µM (active) | 0.0615 µM (active) | 0.115 µM (active)
12 | N#CCCOc1cccc(C2(N3CCCCC3)CCCCC2)c1 | > 100 µM (inactive) | > 100 µM (inactive) | > 100 | > 100 µM (inactive) | > 100 µM (inactive) | > 100 µM (inactive) | > 100 µM (inactive) | > 100 µM (inactive) |  | > 100 µM (inactive) | > 100 µM (inactive) | > 100 µM (inactive) | > 100 µM (inactive) | > 100 µM (inactive) | > 100 µM (inactive) |  | > 100 µM (inactive) | > 100 µM (inactive) | > 100 µM (inactive) | > 100 µM (inactive)
13 | Cc1ccc2c(C)c3ccc4ccccc4c3c[n+]2c1.[O-][Cl+3]([O-])([O-])[O-] | 60 µM (inactive) | 12.2 µM (inactive) | 52.1 | 13.8 µM (inactive) | 34.6 µM (inactive) |  |  |  |  | 16 µM (inactive) |  | 11.5 µM (inactive) | 15.3 µM (inactive) | 13.9 µM (inactive) | 17.7 µM (inactive) | 11.2 µM (inactive) | 13.7 µM (inactive) | 33.6 µM (inactive) | 2.88 µM (inactive) | 
14 | Clc1ccc(OCc2nnc3sc(SSc4nn5c(COc6ccc(Cl)cc6)nnc5s4)nn23)cc1 |  | > 100 µM (inactive) |  | > 100 µM (inactive) | > 100 µM (inactive) |  | > 100 µM (inactive) | 92.9 µM (inactive) |  |  |  | > 100 µM (inactive) | > 100 µM (inactive) | > 100 µM (inactive) | > 100 µM (inactive) | > 100 µM (inactive) |  | 52 µM (inactive) | > 100 µM (inactive) | > 100 µM (inactive)
15 | CC1=C(c2ccc(C)cc2)NC(=S)C(C)C(c2ccc(C)cc2)=N1 (configuration not stated) | 26 µM (inactive) | > 100 µM (inactive) | 82.8 | 85.7 µM (inactive) | 76.2 µM (inactive) | 42 µM (inactive) | > 100 µM (inactive) | 72.9 µM (inactive) | 83.9 µM (inactive) | > 100 µM (inactive) |  | 92.5 µM (inactive) | 47.1 µM (inactive) |  | > 100 µM (inactive) | > 100 µM (inactive) | 89.7 µM (inactive) | 40.5 µM (inactive) | 59 µM (inactive) | > 100 µM (inactive)
16 | COc1cccc(C2c3cc4c(cc3OC(NNS(=O)(=O)c3ccc(C)cc3)C2C)OCO4)c1OC (configuration not stated) | 2.41 µM (inactive) | 1.83 µM (inactive) | 2.65 | 2.84 µM (inactive) | 2.08 µM (inactive) | 2.99 µM (inactive) | 5.47 µM (inactive) | 3.57 µM (inactive) | 3.37 µM (inactive) |  | 2.97 µM (inactive) | 2.97 µM (inactive) | 6.98 µM (inactive) | 2.31 µM (inactive) | 2.59 µM (inactive) | 2.52 µM (inactive) | 3.75 µM (inactive) | 2.63 µM (inactive) | 3.61 µM (inactive) | 
